The source made the active and inactive calls. No cut-off for these calls is given here.
Experiments:
HT-29 [1] = experiment: Antiproliferative activity against human HT-29 cells assessed as inhibition of cell growth incubated for 48 hrs by MTT assay; type: functional, cell-based; conditions: HT-29, 48 h
MCF7 = experiment: Antiproliferative activity against human MCF7 cells assessed as inhibition of cell growth incubated for 48 hrs by MTT assay; type: functional, cell-based; conditions: MCF7, 48 h
HepG2 = experiment: Antiproliferative activity against human HepG2 cells assessed as inhibition of cell growth incubated for 48 hrs by MTT assay; type: functional, cell-based; conditions: HepG2, 48 h
HT-29 [2] = experiment: Induction of cell cycle arrest in human HT-29 cells assessed as accumulation of cells at G2/M phase incubated for 48 hrs by propidium iodide staining based flow cytometric analysis; type: functional
HT-29 [3] = experiment: Induction of cell cycle arrest in human HT-29 cells assessed as accumulation of cells at G2/M phase at 1 uM incubated for 48 hrs by propidium iodide staining based flow cytometric analysis; type: functional
HT-29 [4] = experiment: Induction of cell cycle arrest in human HT-29 cells assessed as accumulation of cells at G2/M phase at 4 uM incubated for 48 hrs by propidium iodide staining based flow cytometric analysis relative to control; type: functional
HT-29 [5] = experiment: Induction of cell cycle arrest in human HT-29 cells assessed as downregulation of Cyclin B1 expression at 0.5 to 4 uM incubated for 48 hrs by Western blotting analysis; type: functional, cell-based; conditions: dose 0.5-4 µM
HT-29 [6] = experiment: Induction of apoptosis in human HT-29 cells at 1 to 4 uM incubated for 48 hrs by Annexin V-FITC/PI staining based flow cytometry; type: functional, cell-based; conditions: dose 1-4 µM
HT-29 [7] = experiment: Induction of necrosis in human HT-29 cells incubated for 48 hrs by MTT assay; type: functional, cell-based
HT-29 [8] = experiment: Induction of cell death in human HT-29 cells incubated for 48 hrs in presence of ferroptosis inhibitor deferoxamine by MTT assay; type: functional, cell-based
HT-29 [9] = experiment: Induction of cell death in human HT-29 cells incubated for 48 hrs in presence of ferroptosis inhibitor CPX by MTT assay; type: functional, cell-based
HT-29 [10] = experiment: Induction of ferroptosis in human HT-29 cells assessed as increase in intracellular iron level incubated for 48 hrs; type: functional, cell-based
HT-29 [11] = experiment: Induction of ferroptosis in human HT-29 cells assessed as increase in intracellular lipid peroxidation accumulation incubated for 48 hrs by C11 BODIPY 581/591 staining based flow cytometry; type: functional, cell-based
HT-29 [12] = experiment: Induction of ferroptosis in human HT-29 cells assessed as increase in intracellular malondialdehyde accumulation incubated for 48 hrs; type: functional, cell-based
HT-29 [13] = experiment: Induction of ferroptosis in human HT-29 cells assessed as decrease in GPx level at 1 to 4 uM incubated for 48 hrs; type: functional, cell-based; conditions: dose 1-4 µM
HT-29 [14] = experiment: Induction of ferroptosis in human HT-29 cells assessed as decrease in intracellular GSH level at 1 to 4 uM incubated for 48 hrs; type: functional, cell-based; conditions: dose 1-4 µM
HT-29 [15] = experiment: Induction of ferroptosis in human HT-29 cells assessed as increase in intracellular iron level incubated for 48 hrs in presence of ferroptosis inhibitor deferoxamine; type: functional, cell-based
HT-29 [16] = experiment: Induction of ferroptosis in human HT-29 cells assessed as increase in intracellular iron level incubated for 48 hrs in presence of ferroptosis inhibitor CPX; type: functional, cell-based
HT-29 [17] = experiment: Induction of ferroptosis in human HT-29 cells assessed as increase in intracellular lipid peroxidation accumulation incubated for 48 hrs in presence of ferroptosis inhibitor deferoxamine by C11 BODIPY 581/591 staining based flow cytometry; type: functional, cell-based
HT-29 [18] = experiment: Induction of ferroptosis in human HT-29 cells assessed as increase in intracellular malondialdehyde accumulation incubated for 48 hrs in presence of ferroptosis inhibitor deferoxamine; type: functional, cell-based
HT-29 [19] = experiment: Induction of ferroptosis in human HT-29 cells assessed as increase in intracellular malondialdehyde accumulation incubated for 48 hrs in presence of ferroptosis inhibitor CPX; type: functional, cell-based
HT-29 [20] = experiment: Induction of ferroptosis in human HT-29 cells assessed as decrease in GPx level incubated for 48 hrs in presence of ferroptosis inhibitor deferoxamine; type: functional, cell-based
HT-29 [21] = experiment: Induction of ferroptosis in human HT-29 cells assessed as decrease in intracellular GSH level incubated for 48 hrs in presence of ferroptosis inhibitor CPX; type: functional, cell-based
HT-29 [22] = experiment: Induction of ferroptosis in human HT-29 cells assessed as mitochondrial morphological change incubated for 48 hrs by transmission electron microscopic analysis; type: functional, cell-based
HT-29 [23] = experiment: Induction of ferroptosis in human HT-29 cells assessed as increase in mitochondrial membrane density incubated for 48 hrs by transmission electron microscopic analysis; type: functional, cell-based
HT-29 [24] = experiment: Induction of ferroptosis in human HT-29 cells assessed as mitochondrial morphological change incubated for 48 hrs in presence of ferroptosis inhibitor deferoxamine by transmission electron microscopic analysis; type: functional, cell-based
HT-29 [25] = experiment: Induction of ferroptosis in human HT-29 cells assessed as fusion of mitochondrial cristae incubated for 48 hrs in presence of ferroptosis inhibitor deferoxamine by transmission electron microscopic analysis; type: functional, cell-based
HT-29 [26] = experiment: Induction of autophagy in human HT-29 cells assessed as upregulation of ATG5 protein expression incubated for 48 hrs by Western blotting analysis; type: functional, cell-based
HT-29 [27] = experiment: Induction of autophagy in human HT-29 cells assessed as upregulation of ATG7 protein expression incubated for 48 hrs by Western blotting analysis; type: functional, cell-based
HT-29 [28] = experiment: Antiproliferative activity against human HT-29 cells assessed as inhibition of cell growth incubated for 48 hrs in presence of autophagy inhibitor 3-methyladenine by MTT assay; type: functional, cell-based
HT-29 [29] = experiment: Induction of ferroptosis in human HT-29 cells assessed as increase in intracellular iron level incubated for 48 hrs in presence of autophagy inhibitor 3-methyladenine; type: functional, cell-based
HT-29 [30] = experiment: Induction of ferroptosis in human HT-29 cells assessed as decrease in GPx level incubated for 48 hrs in presence of autophagy inhibitor 3-methyladenine; type: functional, cell-based
HT-29 [31] = experiment: Induction of ferroptosis in human HT-29 cells assessed as decrease in intracellular GSH level incubated for 48 hrs in presence of autophagy inhibitor 3-methyladenine; type: functional, cell-based
HT-29 [32] = experiment: Induction of autophagy in human HT-29 cells assessed as increase in MDC positive cells incubated for 48 hrs in presence of ferroptosis inhibitor deferoxamine by MDC staining based flow cytometric analysis; type: functional, cell-based
HT-29 [33] = experiment: Induction of ROS production in human HT-29 cells assessed as increase in red fluorescence intensity incubated for 48 hrs by DHE fluorescent probe based flow cytometry; type: functional, cell-based
HT-29 [34] = experiment: Induction of ROS production in human HT-29 cells assessed as increase in DCF fluorescence intensity incubated for 48 hrs by DCFH-DA fluorescent probe based flow cytometry; type: functional, cell-based
HT-29 [35] = experiment: Induction of ferroptosis in human HT-29 cells assessed as increase in intracellular iron level incubated for 48 hrs in presence of ROS scavenger NAC; type: functional, cell-based
HT-29 [36] = experiment: Induction of ferroptosis in human HT-29 cells assessed as increase in intracellular malondialdehyde accumulation incubated for 48 hrs in presence of ROS scavenger NAC; type: functional, cell-based
HT-29 [37] = experiment: Induction of autophagy in human HT-29 cells assessed as increase in MDC positive cells incubated for 48 hrs in presence of ROS scavenger NAC by MDC staining based flow cytometric analysis; type: functional, cell-based
Cell membrane = experiment: Induction of mitochondrial membrane potential loss in human HT-29 cells assessed as decrease in orange-red fluorescence incubated for 48 hrs by JC-1 staining based flow cytometry; type: cell membranes
HT-29 [38] = experiment: Antiproliferative activity against human HT-29 cells assessed as inhibition of cell growth at 1 to 10 uM incubated for 48 hrs by MTT assay; type: functional, cell-based; conditions: dose 1-10 µM

- IC50 (HT-29 [1]): 1970 nM
- IC50 (MCF7): 7.01 µM
- IC50 (HepG2): 13.8 µM
- Activity (Cell membrane): Dose-Dependent Effect
SMILES: COc1ccc2c(c1)NCCN2C(=O)NCCCl
- Activity (HT-29 [2]): Dose-Dependent Effect
- Activity (HT-29 [3]): inactive
- Activity (HT-29 [4]): >80%
- Activity (HT-29 [5]): Active
- Activity (HT-29 [6]): inactive
- Activity (HT-29 [7]): Active
- Activity (HT-29 [8]): inactive
- Activity (HT-29 [9]): inactive
- Activity (HT-29 [10]): Dose-Dependent Effect
- Activity (HT-29 [11]): Dose-Dependent Effect
- Activity (HT-29 [12]): Dose-Dependent Effect
- Activity (HT-29 [13]): Active
- Activity (HT-29 [14]): Active
- Activity (HT-29 [15]): inactive
- Activity (HT-29 [16]): inactive
- Activity (HT-29 [17]): inactive
- Activity (HT-29 [18]): inactive
- Activity (HT-29 [19]): inactive
- Activity (HT-29 [20]): inactive
- Activity (HT-29 [21]): inactive
- Activity (HT-29 [22]): Active
- Activity (HT-29 [23]): Active
- Activity (HT-29 [24]): inactive
- Activity (HT-29 [25]): inactive
- Activity (HT-29 [26]): Dose-Dependent Effect
- Activity (HT-29 [27]): Dose-Dependent Effect
- Activity (HT-29 [28]): inactive
- Activity (HT-29 [29]): Active
- Activity (HT-29 [30]): Active
- Activity (HT-29 [31]): Active
- Activity (HT-29 [32]): Active
- Activity (HT-29 [33]): Active
- Activity (HT-29 [34]): Dose-Dependent Effect
- Activity (HT-29 [35]): inactive
- Activity (HT-29 [36]): inactive
- Activity (HT-29 [37]): inactive
- Activity (HT-29 [38]): Active

— ChEMBL document CHEMBL5505995, “Discovery of novel urea derivatives as ferroptosis and autophagy inducer for human colon cancer treatment” (Eur J Med Chem, 2024)
